What was measured:
recombinant human MAO-A = molecular target: T1, recombinant human MAO-A (Homo sapiens, UniProt P21397); experiment: Monoamine oxidase assay (Amplex Red), MAO-A; assay type: biochemical; settings: for inhibition at 10 µM: at 10,000 nM, read-out: % inhibition at indicated concentration, Human MAO-A; for IC50: n = 3, read-out: IC50 ± SEM, Human MAO-A
T1 construct: purchased Sigma-Aldrich M7316; host or cells: baculovirus-infected insect cells
T1 sequence (P21397 1-527): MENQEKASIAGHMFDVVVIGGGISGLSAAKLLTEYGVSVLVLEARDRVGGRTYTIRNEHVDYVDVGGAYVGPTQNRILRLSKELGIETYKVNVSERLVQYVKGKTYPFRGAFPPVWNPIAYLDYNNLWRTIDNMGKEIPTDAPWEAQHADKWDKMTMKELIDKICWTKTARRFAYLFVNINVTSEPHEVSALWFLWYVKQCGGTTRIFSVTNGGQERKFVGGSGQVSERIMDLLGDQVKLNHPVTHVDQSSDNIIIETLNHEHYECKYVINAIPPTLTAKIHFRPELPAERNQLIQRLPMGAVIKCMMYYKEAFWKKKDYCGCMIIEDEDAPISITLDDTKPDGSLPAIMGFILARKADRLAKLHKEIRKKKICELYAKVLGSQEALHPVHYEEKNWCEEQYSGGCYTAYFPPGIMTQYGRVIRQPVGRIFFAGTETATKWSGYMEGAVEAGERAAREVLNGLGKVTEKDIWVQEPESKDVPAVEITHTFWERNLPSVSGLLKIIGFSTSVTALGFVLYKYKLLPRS
Procedure, shortened: (§1)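 Inhibition was measured with an Amplex Red monoamine oxidase assay, using human MAO-A and MAO-B produced recombinantly in baculovirus-infected insect cells. For rat MAO-B, liver mitochondria-enriched fractions from male Sprague Dawley rats served as enzyme source.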

recombinant human MAO-B = molecular target: T2, recombinant human MAO-B (Homo sapiens, UniProt P27338); experiment: Monoamine oxidase assay (Amplex Red), MAO-B; assay type: biochemical; settings: for IC50: n = 3, read-out: IC50 ± SEM, Human MAO-B; for inhibition at 10 µM: at 10,000 nM (10 μM), read-out: % inhibition at indicated concentration, Human MAO-B
T2 construct: purchased Sigma-Aldrich M7441; host or cells: baculovirus-infected insect cells
T2 sequence (P27338 1-520): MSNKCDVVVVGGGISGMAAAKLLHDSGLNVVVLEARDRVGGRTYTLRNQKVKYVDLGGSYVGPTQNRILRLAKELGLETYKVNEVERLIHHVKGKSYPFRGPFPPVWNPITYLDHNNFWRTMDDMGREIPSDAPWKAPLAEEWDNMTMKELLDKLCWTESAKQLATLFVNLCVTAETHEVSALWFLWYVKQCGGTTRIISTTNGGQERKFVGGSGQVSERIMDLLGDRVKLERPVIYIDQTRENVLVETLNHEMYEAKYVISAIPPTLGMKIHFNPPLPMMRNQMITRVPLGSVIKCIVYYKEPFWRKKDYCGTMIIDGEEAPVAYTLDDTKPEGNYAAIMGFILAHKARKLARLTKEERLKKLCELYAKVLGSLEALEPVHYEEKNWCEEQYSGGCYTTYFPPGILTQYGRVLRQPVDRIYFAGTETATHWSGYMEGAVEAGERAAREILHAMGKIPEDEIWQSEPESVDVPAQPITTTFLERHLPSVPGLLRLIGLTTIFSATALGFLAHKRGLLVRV
Procedure, shortened: as §1

human A2A AR = molecular target: T3, human A2A AR (Homo sapiens, UniProt P29274); experiment: Radioligand binding assay at human A2A AR vs. [^3H]MSX-2; settings: CHO cell membranes, n = 3, read-out: Ki ± SEM, A2A vs. [^3H]MSX-2
T3 construct: expressed in transfected cells; host or cells: CHO cells
Procedure, shortened: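 Source of receptor: rat brain cortex (A1), rat brain striatum (A2A), recombinant CHO cell membranes (human subtypes). Binding only.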

T3 sequence (P29274 whole entry): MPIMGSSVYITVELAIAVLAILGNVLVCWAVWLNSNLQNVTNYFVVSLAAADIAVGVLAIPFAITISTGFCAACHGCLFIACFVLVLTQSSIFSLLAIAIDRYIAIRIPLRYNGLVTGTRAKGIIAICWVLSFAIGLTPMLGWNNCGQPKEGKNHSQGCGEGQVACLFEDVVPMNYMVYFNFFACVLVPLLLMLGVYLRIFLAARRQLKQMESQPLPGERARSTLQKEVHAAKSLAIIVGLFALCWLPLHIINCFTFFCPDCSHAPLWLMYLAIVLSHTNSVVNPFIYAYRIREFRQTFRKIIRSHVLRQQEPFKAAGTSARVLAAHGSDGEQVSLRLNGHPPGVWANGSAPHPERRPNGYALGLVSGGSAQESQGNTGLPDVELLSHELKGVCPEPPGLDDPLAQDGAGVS

Row | inhibition at 10 µM (recombinant human MAO-A) [%] | IC50 (recombinant human MAO-A) [nM] | IC50 (recombinant human MAO-B) [nM] | Ki (human A2A AR) [nM] | inhibition at 10 µM (recombinant human MAO-B) [%] | SMILES
1 | 23 | > 10000 | 3980 | 906 ± 73 | – | CCn1c(=O)c2c(nc3n2CCN(Cc2cc(Cl)ccc2Cl)C3)n(C)c1=O [Compound 14j, 8-(2,5-dichlorobenzyl)-3-ethyl-1-dimethyl-6,7,8,9-tetrahydropyrazino[2,1-f]purine-2,4(1H,3H)-dione]
2 | 8 | > 10000 | < 10000 | 2020 | 65 | CCn1c(=O)c2c(nc3n2CCN(Cc2cccc(C(F)(F)F)c2F)C3)n(C)c1=O [Compound 14l, 3-ethyl-8-(2-fluoro-3-(trifluoromethyl)benzyl)-1-methyl-6,7,8,9-tetrahydropyrazino[2,1-f]purine-2,4(1H,3H)-dione]
3 | 9 | > 10000 | 1430 | 881 ± 96 | – | CCn1c(=O)c2c(nc3n2CCN(Cc2cc(C(F)(F)F)ccc2Cl)C3)n(C)c1=O [Compound 14m, 8-(2-chloro-5-(trifluoromethyl)benzyl)-3-ethyl-1-methyl-6,7,8,9-tetrahydropyrazino[2,1-f]purine-2,4(1H,3H)-dione]
4 | 15 | > 10000 | 3070 | 1700 | – | CCn1c(=O)c2c(nc3n2CCN(Cc2cc(Br)ccc2F)C3)n(C)c1=O [Compound 14o, 8-(5-bromo-2-fluorobenzyl)-3-ethyl-1-methyl-6,7,8,9-tetrahydropyrazino[2,1-f]purine-2,4(1H,3H)-dione]
5 | 7 | > 10000 | < 10000 | 781 ± 68 | 58 | CCn1c(=O)c2c(nc3n2CCN(Cc2cc(C(F)(F)F)ccc2F)C3)n(CC)c1=O [Compound 15j, 1,3-diethyl-8-(2-fluoro-5-(trifluoromethyl)benzyl)-6,7,8,9-tetrahydropyrazino[2,1-f]purine-2,4(1H,3H)-dione]
6 | -10 | > 10000 | < 10000 | 756 ± 271 | 63 | CCn1c(=O)c2c(nc3n2CCN(Cc2ccc(F)c(Br)c2)C3)n(CC)c1=O [Compound 15k, 8-(3-bromo-4-fluorobenzyl)-1,3-diethyl-6,7,8,9-tetrahydropyrazino[2,1-f]purine-2,4(1H,3H)-dione]
7 | 8 | > 10000 | 1310 | 598 ± 92 | – | CCn1c(=O)c2c(nc3n2CCN(Cc2cc(Br)ccc2F)C3)n(CC)c1=O [Compound 15l, 8-(5-bromo-2-fluorobenzyl)-1,3-diethyl-6,7,8,9-tetrahydropyrazino[2,1-f]purine-2,4(1H,3H)-dione]
8 | 1 | > 10000 | < 10000 | 631 ± 122 | 66 | CCn1c(=O)c2c(nc3n2CCN(Cc2cc(Cl)cc(Cl)c2)C3)n(CC)c1=O [Compound 15m, 8-(3,5-dichlorobenzyl)-1,3-diethyl-6,7,8,9-tetrahydropyrazino[2,1-f]purine-2,4(1H,3H)-dione]
9 | -4 | > 10000 | ≤ 10000 | 613 ± 34 | 54 | CCn1c(=O)c2c(nc3n2CCN(Cc2cc(C(F)(F)F)ccc2Cl)C3)n(CC)c1=O [Compound 15n, 8-(2-chloro-5-(trifluoromethyl)benzyl)-1,3-diethyl-6,7,8,9-tetrahydropyrazino[2,1-f]purine-2,4(1H,3H)-dione]
10 | 7 | > 10000 | 524 ± 26 | 4110 | – | CCn1c(=O)c2c(nc3n2CCN(Cc2cc(F)c(F)c(F)c2)C3)n(CC)c1=O [Compound 15r, 1,3-diethyl-8-(3,4,5-trifluorobenzyl)-6,7,8,9-tetrahydropyrazino[2,1-f]purine-2,4(1H,3H)-dione]
11 | 7 | > 10000 | 3690 | – | – | Cn1c(=O)c2c(nc3n2CCN(Cc2ccc(Cl)c(Cl)c2)C3)n(C2CC2)c1=O [Compound 17, 8-(3,4-dichlorobenzyl)-1-cyclopropyl-3-methyl-6,7,8,9-tetrahydropyrazino[2,1-f]purine-2,4(1H,3H)-dione]

— PMC6028563, “Probing Substituents in the 1- and 3-Position: Tetrahydropyrazino-Annelated Water-Soluble Xanthine Derivatives as Multi-Target Drugs With Potent Adenosine Receptor Antagonistic Activity” (Frontiers in Chemistry, 2018)
